# Experimental data as given in paper PMC5218480 (PLoS ONE, 2017).
# Tested on: MV-4-11 cells
# Experiment: Gene expression microarray analysis (Affymetrix PrimeView) and GSEA
# Type: cell-based, human
# Parameters: RFU PODN (11730768_x_at) / Fold change /veh PODN (11730768_x_at) / RFU LINC00158 (11744669_a_at) / Fold change /veh LINC00158 (11744669_a_at) / RFU DUSP10 (11751237_a_at) / Fold change /veh DUSP10 (11751237_a_at) / RFU ID3 (11757404_x_at) / Fold change /veh ID3 (11757404_x_at) / RFU PLEKHG5 (11737974_s_at) / Fold change /veh PLEKHG5 (11737974_s_at) / RFU LRRC4B (11730491_at) / Fold change /veh LRRC4B (11730491_at) / RFU GIMAP4 (11747438_a_at) / Fold change /veh GIMAP4 (11747438_a_at) / RFU KRT8 (11758183_x_at) / Fold change /veh KRT8 (11758183_x_at) / RFU CNN1 (11734310_a_at) / Fold change /veh CNN1 (11734310_a_at) / RFU VPS37D (11726825_at) / Fold change /veh VPS37D (11726825_at) / RFU C10orf10 (11716522_x_at) / Fold change /veh C10orf10 (11716522_x_at) / RFU KIR2DL2 /// KIR2DL4 /// KIR2DL5A /// KIR2DL5B /// KIR2DS1 /// KIR2DS2 /// KIR2DS3 /// KIR2DS4 /// KIR3DL3 /// KIR3DL3 /// KIR3DS1 (11738374_at) / Fold change /veh KIR2DL2 /// KIR2DL4 /// KIR2DL5A /// KIR2DL5B /// KIR2DS1 /// KIR2DS2 /// KIR2DS3 /// KIR2DS4 /// KIR3DL3 /// KIR3DL3 /// KIR3DS1 (11738374_at) / RFU C1QL1 (11718748_at) / Fold change /veh C1QL1 (11718748_at) / RFU TMPRSS4 (11747572_a_at) / Fold change /veh TMPRSS4 (11747572_a_at) / RFU HAMP (11756126_x_at) / Fold change /veh HAMP (11756126_x_at) / RFU RNFT2 (11725882_a_at) / Fold change /veh RNFT2 (11725882_a_at) / RFU NR4A2 (11747474_a_at) / Fold change /veh NR4A2 (11747474_a_at) / RFU ABCC12 (11746883_a_at) / Fold change /veh ABCC12 (11746883_a_at) / RFU TMEM136 (11760407_x_at) / Fold change /veh TMEM136 (11760407_x_at) / RFU CLDN22 /// WWC2 (11732394_at) / Fold change /veh CLDN22 /// WWC2 (11732394_at) / RFU HLA-DPB1 (11760878_x_at) / Fold change /veh HLA-DPB1 (11760878_x_at) / RFU SPINT1 (11716480_a_at) / Fold change /veh SPINT1 (11716480_a_at) / RFU GAP43 (11754022_s_at) / Fold change /veh GAP43 (11754022_s_at) / RFU A4GNT (11735810_at) / Fold change /veh A4GNT (11735810_at) / RFU PRB3 (11715151_x_at) / Fold change /veh PRB3 (11715151_x_at) / RFU TUBB4B (11761932_at) / Fold change /veh TUBB4B (11761932_at) / RFU CAPN14 (11732068_a_at) / Fold change /veh CAPN14 (11732068_a_at) / RFU TMCC2 (11721928_a_at) / Fold change /veh TMCC2 (11721928_a_at) / RFU IRGQ (11745062_a_at) / Fold change /veh IRGQ (11745062_a_at) / RFU FAM174B (11720279_a_at) / Fold change /veh FAM174B (11720279_a_at) / RFU TMPRSS4 (11748680_a_at) / Fold change /veh TMPRSS4 (11748680_a_at) / RFU FAM212B (11763350_a_at) / Fold change /veh FAM212B (11763350_a_at) / RFU PLEKHG5 (11743358_a_at) / Fold change /veh PLEKHG5 (11743358_a_at) / RFU ZSCAN30 (11745921_a_at) / Fold change /veh ZSCAN30 (11745921_a_at) / RFU CMKLR1 (11741424_a_at) / Fold change /veh CMKLR1 (11741424_a_at) / RFU LOC101060620 /// MAPK8IP1 (11723275_at) / Fold change /veh LOC101060620 /// MAPK8IP1 (11723275_at) / RFU SPTSSB (11747773_x_at) / Fold change /veh SPTSSB (11747773_x_at) / RFU PRSS12 (11739890_at) / Fold change /veh PRSS12 (11739890_at) / RFU BIN1 (11741810_x_at) / Fold change /veh BIN1 (11741810_x_at) / RFU WNT11 (11732464_a_at) / Fold change /veh WNT11 (11732464_a_at) / RFU C10orf10 (11716521_a_at) / Fold change /veh C10orf10 (11716521_a_at) / RFU C5orf56 (11738089_at) / Fold change /veh C5orf56 (11738089_at) / RFU CYB561 (11721691_x_at) / Fold change /veh CYB561 (11721691_x_at) / RFU ANKRD19P (11752326_a_at) / Fold change /veh ANKRD19P (11752326_a_at) / RFU OR2T12 /// OR2T33 /// OR2T8 (11738714_s_at) / Fold change /veh OR2T12 /// OR2T33 /// OR2T8 (11738714_s_at) / RFU VCAN (11748164_a_at) / Fold change /veh VCAN (11748164_a_at) / RFU JSRP1 (11732532_at) / Fold change /veh JSRP1 (11732532_at) / RFU KRTAP10-11 (11738290_x_at) / Fold change /veh KRTAP10-11 (11738290_x_at) / RFU MYO3A (11730013_a_at) / Fold change /veh MYO3A (11730013_a_at) / RFU EBF3 (11725865_a_at) / Fold change /veh EBF3 (11725865_a_at) / RFU CAMK2N1 (11719241_x_at) / Fold change /veh CAMK2N1 (11719241_x_at) / RFU C5orf56 (11738088_a_at) / Fold change /veh C5orf56 (11738088_a_at) / RFU OLFML3 (11715873_a_at) / Fold change /veh OLFML3 (11715873_a_at) / RFU LOC100653217 /// NTM (11731650_a_at) / Fold change /veh LOC100653217 /// NTM (11731650_a_at) / RFU MAPK11 (11762145_a_at) / Fold change /veh MAPK11 (11762145_a_at) / RFU FIZ1 (11724087_x_at) / Fold change /veh FIZ1 (11724087_x_at) / RFU OASL (11726364_x_at) / Fold change /veh OASL (11726364_x_at) / RFU SOX15 (11748057_x_at) / Fold change /veh SOX15 (11748057_x_at) / RFU CD79A (11719716_a_at) / Fold change /veh CD79A (11719716_a_at) / RFU HIST1H1D (11736915_at) / Fold change /veh HIST1H1D (11736915_at) / RFU CASKIN2 (11723855_a_at) / Fold change /veh CASKIN2 (11723855_a_at) / RFU LOC730098 (11760151_x_at) / Fold change /veh LOC730098 (11760151_x_at) / RFU OR4N2 (11742367_at) / Fold change /veh OR4N2 (11742367_at) / RFU PRRT2 (11749266_a_at) / Fold change /veh PRRT2 (11749266_a_at) / RFU SNX32 (11753110_a_at) / Fold change /veh SNX32 (11753110_a_at) / RFU CDHR5 (11726645_a_at) / Fold change /veh CDHR5 (11726645_a_at) / RFU RCAN1 (11760418_a_at) / Fold change /veh RCAN1 (11760418_a_at) / RFU FAM167A (11723789_a_at) / Fold change /veh FAM167A (11723789_a_at) / RFU FAM26E (11764081_at) / Fold change /veh FAM26E (11764081_at) / RFU ISYNA1 (11749810_s_at) / Fold change /veh ISYNA1 (11749810_s_at) / RFU ACY1 (11761880_at) / Fold change /veh ACY1 (11761880_at) / RFU 11764098_at / Fold change /veh 11764098_at / RFU SAMD14 (11745864_x_at) / Fold change /veh SAMD14 (11745864_x_at) / RFU NPB (11741838_a_at) / Fold change /veh NPB (11741838_a_at) / RFU TMPRSS6 (11731388_a_at) / Fold change /veh TMPRSS6 (11731388_a_at) / RFU KRTAP10-2 (11738614_at) / Fold change /veh KRTAP10-2 (11738614_at) / RFU ARHGAP8 /// PRR5-ARHGAP8 (11727945_x_at) / Fold change /veh ARHGAP8 /// PRR5-ARHGAP8 (11727945_x_at) / RFU KRTAP5-7 /// NADSYN1 (11734609_at) / Fold change /veh KRTAP5-7 /// NADSYN1 (11734609_at) / RFU RASL12 (11751679_a_at) / Fold change /veh RASL12 (11751679_a_at) / RFU CDKN2B (11736163_a_at) / Fold change /veh CDKN2B (11736163_a_at) / RFU PRF1 (11729649_at) / Fold change /veh PRF1 (11729649_at) / RFU, ZNF638 /// ZNF638-IT1 / Fold change vs veh, ZNF638 /// ZNF638-IT1 / RFU, PANK3 / Fold change vs veh, PANK3 / RFU, SH3YL1 / Fold change vs veh, SH3YL1 / RFU, ZEB2 / Fold change vs veh, ZEB2 / RFU, NRIP1 / Fold change vs veh, NRIP1 / RFU, PTTG1IP / Fold change vs veh, PTTG1IP / RFU, CAPN2 / Fold change vs veh, CAPN2 / RFU, MED14 / Fold change vs veh, MED14 / RFU, SNORA58 / Fold change vs veh, SNORA58 / RFU, C1orf63 / Fold change vs veh, C1orf63 / RFU, LRRFIP1 / Fold change vs veh, LRRFIP1 / RFU, NDUFAF7 / Fold change vs veh, NDUFAF7 / RFU, SLC12A2 / Fold change vs veh, SLC12A2 / RFU, IBTK / Fold change vs veh, IBTK / RFU, ESF1 / Fold change vs veh, ESF1 / Fold change vs veh, TMEM50B / RFU, TAOK1 / Fold change vs veh, TAOK1 / RFU, ACBD3 / Fold change vs veh, ACBD3 / RFU, TMA16 / Fold change vs veh, TMA16 / RFU, RWDD3 / Fold change vs veh, RWDD3 / RFU, BCAT1 / Fold change vs veh, BCAT1 / RFU, EDEM3 / Fold change vs veh, EDEM3 / RFU, TMEM33 / Fold change vs veh, TMEM33 / RFU, WDR75 / Fold change vs veh, WDR75 / RFU, AHCTF1 / Fold change vs veh, AHCTF1 / RFU, TFRC / Fold change vs veh, TFRC / RFU, ZDHHC17 / Fold change vs veh, ZDHHC17 / RFU, NOM1 / Fold change vs veh, NOM1 / RFU, ARL8B / Fold change vs veh, ARL8B / RFU, ZBTB11 / Fold change vs veh, ZBTB11 / RFU, TAMM41 / Fold change vs veh, TAMM41 / RFU, KIAA1704 /// LOC100996395 / Fold change vs veh, KIAA1704 /// LOC100996395 / RFU, ING1 / Fold change vs veh, ING1 / RFU, TRMT61B / Fold change vs veh, TRMT61B / RFU, FUBP3 / Fold change vs veh, FUBP3 / RFU, TP53 / Fold change vs veh, TP53 / RFU, TNKS2 / Fold change vs veh, TNKS2 / RFU, ZFP14 / Fold change vs veh, ZFP14 / RFU, ACTR2 / Fold change vs veh, ACTR2 / RFU, PPP3R1 / Fold change vs veh, PPP3R1 / RFU, PIK3R1 / Fold change vs veh, PIK3R1 / RFU, HNRNPA1 / Fold change vs veh, HNRNPA1 / RFU, RNF170 / Fold change vs veh, RNF170 / RFU, ZNF28 / Fold change vs veh, ZNF28 / RFU, RNGTT / Fold change vs veh, RNGTT / RFU, OGT / Fold change vs veh, OGT / RFU, BRD1 / Fold change vs veh, BRD1 / RFU, MARS / Fold change vs veh, MARS / RFU, ZNF655 / Fold change vs veh, ZNF655 / RFU, FAHD1 / Fold change vs veh, FAHD1 / RFU, BDP1 / Fold change vs veh, BDP1 / RFU, LRRCC1 / Fold change vs veh, LRRCC1 / RFU, ARID1A / Fold change vs veh, ARID1A / RFU, ZNF146 / Fold change vs veh, ZNF146 / RFU, ZNF330 / Fold change vs veh, ZNF330 / RFU, GPN3 / Fold change vs veh, GPN3 / RFU, C9orf123 / Fold change vs veh, C9orf123 / RFU, N4BP2L2 / Fold change vs veh, N4BP2L2 / RFU, ARFIP1 / Fold change vs veh, ARFIP1 / RFU, FAM179B / Fold change vs veh, FAM179B / RFU, BCL10 / Fold change vs veh, BCL10 / RFU, UHRF1BP1L / Fold change vs veh, UHRF1BP1L / RFU, BET1 / Fold change vs veh, BET1 / RFU, CNOT2 / Fold change vs veh, CNOT2 / RFU, ZNF268 / Fold change vs veh, ZNF268 / Fold change vs veh, ZNF507 / RFU, DGCR2 / Fold change vs veh, DGCR2 / RFU, WDSUB1 / Fold change vs veh, WDSUB1 / Fold change vs veh, HSP90B1 /// MIR3652 / RFU, ADSS / Fold change vs veh, ADSS / RFU, GK / Fold change vs veh, GK / RFU, ZNF148 / Fold change vs veh, ZNF148 / RFU, TAF9 / Fold change vs veh, TAF9 / RFU, SLC1A5 / Fold change vs veh, SLC1A5 / RFU, SLMO2 / Fold change vs veh, SLMO2 / RFU, ABCC4 / Fold change vs veh, ABCC4 / RFU, LOC101060439 /// RAP1B / Fold change vs veh, LOC101060439 /// RAP1B / RFU, RFX7 / Fold change vs veh, RFX7 / RFU, GTPBP10 / Fold change vs veh, GTPBP10 / RFU, CNEP1R1 / Fold change vs veh, CNEP1R1 / RFU, BIVM-ERCC5 /// ERCC5 / Fold change vs veh, BIVM-ERCC5 /// ERCC5 / RFU, ILF3 / Fold change vs veh, ILF3 / RFU 11762660_at / Fold change /veh 11762660_at / RFU VCAN (11757783_s_at) / Fold change /veh VCAN (11757783_s_at) / RFU DDX43 (11728927_at) / Fold change /veh DDX43 (11728927_at) / RFU KRT8 (11758188_x_at) / Fold change /veh KRT8 (11758188_x_at) / RFU NKD1 (11759106_at) / Fold change /veh NKD1 (11759106_at) / RFU SRD5A1 (11742802_a_at) / Fold change /veh SRD5A1 (11742802_a_at) / RFU TPSAB1 /// TPSB2 (11721975_s_at) / Fold change /veh TPSAB1 /// TPSB2 (11721975_s_at) / RFU GSTM3 (11746129_a_at) / Fold change /veh GSTM3 (11746129_a_at) / RFU IL23R (11737362_x_at) / Fold change /veh IL23R (11737362_x_at) / RFU TMEM51 (11727254_a_at) / Fold change /veh TMEM51 (11727254_a_at) / RFU PIWIL2 (11732686_x_at) / Fold change /veh PIWIL2 (11732686_x_at) / RFU ORM1 (11744905_x_at) / Fold change /veh ORM1 (11744905_x_at) / RFU CCDC152 (11743942_at) / Fold change /veh CCDC152 (11743942_at) / RFU ECM1 (11717891_a_at) / Fold change /veh ECM1 (11717891_a_at) / RFU IL23R (11748794_a_at) / Fold change /veh IL23R (11748794_a_at) / RFU TNFAIP8L3 (11732012_x_at) / Fold change /veh TNFAIP8L3 (11732012_x_at) / RFU MBOAT4 (11741988_at) / Fold change /veh MBOAT4 (11741988_at) / RFU 11764193_at / Fold change /veh 11764193_at / RFU TMEM53 (11763286_at) / Fold change /veh TMEM53 (11763286_at) / RFU MAGEB2 (11727129_at) / Fold change /veh MAGEB2 (11727129_at) / RFU TMEM200A (11744735_a_at) / Fold change /veh TMEM200A (11744735_a_at) / RFU CCDC152 (11751479_a_at) / Fold change /veh CCDC152 (11751479_a_at) / RFU FAM211A (11726209_a_at) / Fold change /veh FAM211A (11726209_a_at) / RFU RGS16 (11746705_a_at) / Fold change /veh RGS16 (11746705_a_at) / RFU VCAN (11755009_s_at) / Fold change /veh VCAN (11755009_s_at) / RFU RHOB (11743442_s_at) / Fold change /veh RHOB (11743442_s_at) / RFU RGS16 (11720943_a_at) / Fold change /veh RGS16 (11720943_a_at) / RFU RGS16 (11720944_at) / Fold change /veh RGS16 (11720944_at) / RFU, VPS4B / Fold change vs veh, VPS4B / RFU, CREB1 / Fold change vs veh, CREB1 / RFU, DNAJC13 / Fold change vs veh, DNAJC13 / RFU, GNAQ / Fold change vs veh, GNAQ / RFU, CDK5R1 / Fold change vs veh, CDK5R1 / RFU, ZRANB3 / Fold change vs veh, ZRANB3 / RFU, CUL4A / Fold change vs veh, CUL4A / RFU, CCNY / Fold change vs veh, CCNY / RFU, UFL1 / Fold change vs veh, UFL1 / RFU, COG3 / Fold change vs veh, COG3 / RFU, DIAPH2 / Fold change vs veh, DIAPH2 / RFU, SKA2 / Fold change vs veh, SKA2 / RFU, AFF3 / Fold change vs veh, AFF3 / RFU, LMF1 / Fold change vs veh, LMF1 / RFU, IPO11 / Fold change vs veh, IPO11 / RFU, DFFB / Fold change vs veh, DFFB / RFU, FOXP1 / Fold change vs veh, FOXP1 / RFU, CARD8 / Fold change vs veh, CARD8 / RFU, STRN3 / Fold change vs veh, STRN3 / RFU, ADK / Fold change vs veh, ADK / RFU, RASSF2 / Fold change vs veh, RASSF2 / RFU, WIPF1 / Fold change vs veh, WIPF1 / RFU, LARP1B / Fold change vs veh, LARP1B / RFU, RASA1 / Fold change vs veh, RASA1 / RFU, RB1 / Fold change vs veh, RB1 / RFU, PPFIA1 / Fold change vs veh, PPFIA1 / RFU, MAT2A / Fold change vs veh, MAT2A / RFU, CCT5 / Fold change vs veh, CCT5 / RFU, WDR92 / Fold change vs veh, WDR92 / RFU, CUX1 / Fold change vs veh, CUX1 / RFU, TTC7A / Fold change vs veh, TTC7A / RFU, TMEM135 / Fold change vs veh, TMEM135 / RFU, DEPTOR / Fold change vs veh, DEPTOR / RFU, CPM / Fold change vs veh, CPM / RFU, DNAJB6 / Fold change vs veh, DNAJB6 / RFU, CACNA2D3 / Fold change vs veh, CACNA2D3 / RFU, DTX4 / Fold change vs veh, DTX4 / RFU, TFCP2 / Fold change vs veh, TFCP2 / RFU, GMCL1 /// GMCL1P1 / Fold change vs veh, GMCL1 /// GMCL1P1 / RFU, AEBP2 / Fold change vs veh, AEBP2 / RFU, SNHG1 /// SNORD22 /// SNORD25 /// SNORD26 /// SNORD27 /// SNORD28 /// SNORD29 /// SNORD31 / Fold change vs veh, SNHG1 /// SNORD22 /// SNORD25 /// SNORD26 /// SNORD27 /// SNORD28 /// SNORD29 /// SNORD31 / Fold change (Aza/veh), C12orf56 (ProbeSet 11735607_a_at) / Fold change (ACY-1035/veh), C12orf56 (ProbeSet 11735607_a_at) / Fold change (Aza/veh), FGFR1OP (ProbeSet 11751329_s_at) / Fold change (ACY-1035/veh), FGFR1OP (ProbeSet 11751329_s_at) / Fold change (Aza/veh), VPS36 (ProbeSet 11739960_a_at) / Fold change (ACY-1035/veh), VPS36 (ProbeSet 11739960_a_at) / RFU SYPL1 (11715823_x_at) / Fold change /veh SYPL1 (11715823_x_at) / RFU IGFBP7 (11715501_s_at) / Fold change /veh IGFBP7 (11715501_s_at) / RFU REEP3 (11722064_at) / Fold change /veh REEP3 (11722064_at) / RFU IGLL1 (11728026_x_at) / Fold change /veh IGLL1 (11728026_x_at): dose or concentration left out as unconfirmed
# Conditions: MV-4-11 cells, 48 hours
smiles,measurement,value
Nc1ncn([C@@H]2O[C@H](CO)[C@@H](O)[C@H]2O)c(=O)n1 [azacitidine],RFU MAPK11 (11762145_a_at),24.54 RFU
